Read-outs that look alike come from different tables or passages of the source.
How the values were obtained:
[1] = system: sumoylation levels (SUMO 2/3 conjugates) in HCT-116 cells; assay: HCT-116 4 Hour Cell Assay (Western, SUMO 2/3 conjugates); type: cell-based; settings: 4 h treatment, Anti-Sumo 2-3 immunoblot, read-out: HCT-116 Western 4 h IC50 (μM) Ave
Procedure: This protocol describes the procedures used to assess the effects of compounds of interest on sumoylation levels. Immunoblot of SUMO 2/3 conjugates are performed and IC50 curves are generated upon quantification of sumoylations bands. HCT-116 cells are seeded in a 12 well plate (500,000 cells/well). The following day the cells are treated with compounds of interest (resuspended in DMSO) for 4 hours (11 concentrations with a three-fold dilution; starting concentration 25 μM) Following 4 hours of incubation the cells are washed with ice cold PBS 1×and protein extraction is performed with RIPA buffer supplemented with phosphatases and proteases inhibitors, 25 mM of NEM and 50 units/mL of Benzonase. Samples undergo centrifugation at 13,000 RPM, 4° C., for 10 minutes and the supernatant is collected. Protein quantification is performed using BCA. Non-Reducing Laemmli Buffer is added to the samples. Samples are heated at 75° C. for 10 minutes, and are centrifuged for 3 minutes at 9000 RPM Nupage 4-12% Bis Tris gels and 1× MOPS buffer (Fisher Scientific)+1× NuPAGE Antioxidant (Invitrogen) are used to perform the SDS-PAGE gel electrophoresis (20 to 40 μg of proteins are loaded in the gels). Proteins are then transferred to PVDF membranes and the level of total proteins are measured by staining with Revert Total Protein Stain and the fluorescent bands are acquired using the LI-COR FC (700 nm for 1 min) Membranes are blocked for 5 minutes with Bio-Rad Blocking Buffer and are subsequently incubated over night at 4° C. with Anti-Sumo 2-3 mAb (M BL #M114-3, 1:1000 in Bio-Rad Blocking Buffer, 0.2% Tween 20) Membranes are washed with 1×TBS-T (3 times for 5 minutes) and sumoylation is detected using Li-cor IRDye 800CW Goat anti-Mouse IgG secondary antibody (1:10,000 dilution) upon 1 hour of incubation in blocking buffer with 0.2% Tween 20 and 0.01% SDS. After the incubation, the membranes are washed with 1×TBS-T (3 times for 5 minutes). To visualize the fluorescent bands the membranes are scanned with LI-COR FC (700 nm for 1 min and […] for 2 mins). Sumoylation levels are quantified upon normalization with total protein levels, using the LI-COR Image Studio Lite 5.2 Software.

SAE1 = SAE1 (Homo sapiens (Human), UniProt Q9UBE0+Q9UBT2); assay: SAE High Throughput Biochemical Assay (HTRF), 15 min preincubation; settings: read-out: 15 min preincubation HTRF IC50 (μM) Ave, SAE1 12.5 nM, ATP 100 μM
Sequence of SAE1 (Q9UBE0 whole entry): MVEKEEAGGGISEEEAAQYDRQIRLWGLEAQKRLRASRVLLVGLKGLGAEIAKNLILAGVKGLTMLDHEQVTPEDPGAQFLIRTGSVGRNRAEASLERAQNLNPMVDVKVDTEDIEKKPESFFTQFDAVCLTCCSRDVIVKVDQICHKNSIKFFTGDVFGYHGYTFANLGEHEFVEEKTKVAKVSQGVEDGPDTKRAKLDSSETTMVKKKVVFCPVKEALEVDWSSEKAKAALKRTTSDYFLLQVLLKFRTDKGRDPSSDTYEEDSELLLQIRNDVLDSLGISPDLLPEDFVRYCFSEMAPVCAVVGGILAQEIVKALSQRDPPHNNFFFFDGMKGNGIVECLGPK
Sequence of SAE1 (Q9UBT2 whole entry): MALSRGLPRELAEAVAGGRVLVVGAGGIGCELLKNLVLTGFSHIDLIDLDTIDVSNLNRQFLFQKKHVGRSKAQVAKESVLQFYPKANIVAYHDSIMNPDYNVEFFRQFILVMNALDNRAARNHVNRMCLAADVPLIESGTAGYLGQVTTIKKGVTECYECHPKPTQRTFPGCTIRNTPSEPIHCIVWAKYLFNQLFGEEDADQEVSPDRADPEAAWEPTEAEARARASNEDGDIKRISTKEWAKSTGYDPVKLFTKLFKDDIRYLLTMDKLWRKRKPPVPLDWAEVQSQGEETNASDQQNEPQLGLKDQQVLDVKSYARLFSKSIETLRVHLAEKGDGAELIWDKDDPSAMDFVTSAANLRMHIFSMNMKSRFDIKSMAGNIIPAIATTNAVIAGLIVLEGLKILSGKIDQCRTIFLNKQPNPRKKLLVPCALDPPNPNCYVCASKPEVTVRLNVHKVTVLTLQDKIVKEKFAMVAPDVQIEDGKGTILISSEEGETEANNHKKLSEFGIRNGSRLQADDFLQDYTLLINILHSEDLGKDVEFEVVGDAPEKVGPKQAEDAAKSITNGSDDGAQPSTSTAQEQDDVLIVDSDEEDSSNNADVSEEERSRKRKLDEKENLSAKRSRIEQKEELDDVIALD
Outline: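 HTRF detection of SUMO transfer from SUMO-GST to UBC9-His (40 nM each) by SAE1 at 12.5 nM used 100 μM ATP in pH 7.5 HEPES buffer with 10 mM MgCl2 and 0.1% BSA. Enzyme and compound were preincubated 15 min at RT and the reaction ran 45 min, with readings after 2 h and overnight.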

Row | IC50 ([1]; Homo sapiens, HCT-116, 4 h) | Compound | IC50 (SAE1) | IC50 [1]
1 | 0.309 µM | CCn1cc(-c2ccccc2[C@@H]2CN(C(=O)/C=C/[C@@H]3CC(C)(C)CN3)Cc3sc(C#N)cc32)c(C(F)(F)F)n1 [Example 83, (S)-6-((E)-3-((S)-4,4-Dimethylpyrrolidin-2-yl)acryloyl)-4-(2-(1-ethyl-3-(trifluoromethyl)-1H pyrazol-4-yl)phenyl)-4,5,6,7-tetrahydrothieno[2,3-c]pyridine-2-carbonitrile] | 0.76 µM | 
2 | 0.483 µM | CCn1cc(-c2c(F)cccc2[C@@H]2CN(C(=O)/C=C/CNC34CC(C3)C4)Cc3sc(C#N)cc32)c(C(F)(F)F)n1 [Example 246, (S, E)-6-(4-(bicyclo[1.1.1]pentan-1-ylamino)but-2-enoyl)-4-(2-(1-ethyl-3-(trifluoromethyl)-1 H-pyrazol-4-yl)-3-fluorophenyl)-4,5,6,7-tetrahydrothieno[2,3-c]pyridine-2-carbonitrile] | 1.65 µM | 
3 | 0.225 µM | CCn1cc(-c2c(F)cccc2[C@@H]2CN(C(=O)/C=C/CNC(C)(C)C)Cc3sc(C#N)cc32)c(C(F)(F)F)n1 [Example 127, (S, E)-6-(4-(tert-butylamino)but-2-enoyl)-4-(2-(1-ethyl-3-(trifluoromethyl)-1 H pyrazol-4-yl)-3-fluorophenyl)-4,5,6,7-tetrahydrothieno[2,3-c]pyridine-2-carbonitrile] | 1.07 µM | 
4 | 0.501 µM | CCn1cc(-c2ccccc2[C@@H]2CN(C(=O)C#CC3CCNC3)Cc3sc(C#N)cc32)c(C(F)(F)F)n1 (stereo partly drawn) [Example 146, (4S)-4-(2-(1-Ethyl-3-(trifluoromethyl)-1 H pyrazol-4-yl)phenyl)-6-(3-(pyrrolidin-3-yl)propioloyl)-4,5,6,7-tetrahydrothieno[2,3-c]pyridine-2-carbonitrile] | 1.92 µM | 
5 | 0.502 µM | CCn1cc(-c2c(Cl)cccc2[C@@H]2CN(C(=O)/C=C/CN(C)C)Cc3sc(C#N)cc32)c(C(F)(F)F)n1 [Compound 243] | 1.17 µM | 
6 | 0.339 µM | CCn1cc(-c2c(F)cccc2C2CN(C(=O)/C=C/CN(C)C)Cc3sc(C#N)cc32)c(C(F)(F)F)n1 (stereo not shown) [Compound 234] | 2.23 µM | 
7 | 0.897 µM | CCn1cc(C2=C([C@@H]3CN(C(=O)/C=C/CN(C)C)Cc4sc(C#N)cc43)CCCC2)c(C(F)(F)F)n1 [Compound 237] | 2.64 µM | 
8 |  | CCn1cc(-c2c(F)cccc2[C@@H]2CN(C(=O)/C=C/[C@@H]3C[C@H]4C[C@H]4N3)Cc3sc(C#N)cc32)c(C(F)(F)F)n1 [Example 92, (S)-6-((E)-3-((IR,3S,5R)-2-azabicyclo[3.1.0]hexan-3-yl)acryloyl)-4-(2-(1-ethyl-3-(trifluoromethyl)-1H pyrazol-4-yl)-3-fluorophenyl)-4,5,6,7-tetrahydrothieno[2,3-c]pyridine-2-carbonitrile] | 0.4 µM | 0.451 µM
9 | 0.445 µM | CCn1cc(-c2c(C(F)F)cccc2C2CN(C(=O)/C=C/CN(C)C)Cc3sc(C#N)cc32)c(C(F)(F)F)n1 (stereo not shown) [Compound 241] | 5.52 µM | 
10 | 2.05 µM | CCn1cc(-c2ccccc2[C@@H]2CN(C(=O)/C=C/CN3CCC(C)C3)Cc3sc(C#N)cc32)c(C(F)(F)F)n1 (stereo partly shown) [Example 32] | 3.9 µM | 
11 | 0.767 µM | CCn1cc(-c2cc(O)ccc2C2CN(C(=O)/C=C/CN(C)C)Cc3sc(C#N)cc32)c(C(F)(F)F)n1 (stereo not shown) [Example 203, (E)-6-(4-(Dimethylamino)but-2-enoyl)-4-(2-(1-ethyl-3-(trifluoromethyl)-1 H-pyrazol-4-yl)-4-hydroxyphenyl)-4,5,6,7-tetrahydrothieno[2,3-c]pyridine-2-carbonitrile] | 4.75 µM | 
12 | 0.269 µM | CN(C)C/C=C/C(=O)N1Cc2sc(C#N)cc2[C@H](c2ccccc2-c2cn(CCF)nc2C(F)(F)F)C1 [Example 17, (S,E)-6-(4-(dimethylamino)but-2-enoyl)-4-(2-(1-(2-fluoroethyl)-3-(trifluoromethyl)-1 H-pyrazol-4-yl)phenyl)-4,5,6,7-tetrahydrothieno[2,3-c]pyridine-2-carbonitrile] | 2.47 µM | 
13 | 5.39 µM | C=CC(=O)N1Cc2sc(C#N)cc2C(c2ccc(NC(C)=O)cc2-c2cn(CC)nc2C(F)(F)F)C1 (stereo not shown) [Compound 230] | 1.1 µM | 
14 | 0.0631 µM | CCn1cc(-c2c(F)cccc2[C@@H]2CN(C(=O)/C=C/[C@@H]3C[C@H](F)CN3)Cc3sc(C#N)cc32)c(C(F)(F)F)n1 [Example 122, (S)-4-(2-(1-Ethyl-3-(trifluoromethyl)-1H pyrazol-4-yl)-3-fluorophenyl)-6-((E)-3-((2S,4S)-4-fluoropyrrolidin-2-yl)acryloyl)-4,5,6,7-tetrahydrothieno[2,3-c]pyridine-2-carbonitrile] | 0.12 µM | 
15 | 0.121 µM | CCn1cc(-c2c(F)cccc2[C@@H]2CN(C(=O)/C=C/[C@@H]3C[C@H](OC)CN3)Cc3sc(C#N)cc32)c(C(F)(F)F)n1 [Example 119, (S)-4-(2-(1-Ethyl-3-(trifluoromethyl)-1H pyrazol-4-yl)-3-fluorophenyl)-6-((E)-3-((2S,4S)-4-methoxypyrrolidin-2-yl)acryloyl)-4,5,6,7-tetrahydrothieno[2,3-c]pyridine-2-carbonitrile] | 0.44 µM | 
16 | 1.97 µM | CCn1cc(-c2ccccc2[C@@H]2CN(C(=O)/C=C/CNC(C)(C)CO)Cc3sc(C#N)cc32)c(C(F)(F)F)n1 [Compound 244] | 2.88 µM | 
17 | 0.57 µM | CCn1cc(-c2c(F)cccc2[C@@H]2CN(C(=O)/C=C/[C@H]3CCN3)Cc3sc(C#N)cc32)c(C(F)(F)F)n1 [Example 54, (S)-6-((E)-3-((R)-azetidin-2-yl)acryloyl)-4-((S)-2-(1-ethyl-3-(trifluoromethyl)-1 H-pyrazol-4-yl)-3-fluorophenyl)-4,5,6,7-tetrahydrothieno[2,3-c]pyridine-2-carbonitrile] | 0.55 µM | 
18 | 0.145 µM | CCn1cc(-c2c(F)cccc2[C@@H]2CN(C(=O)/C=C/C3CC[C@@H](C)N3)Cc3sc(C#N)cc32)c(C(F)(F)F)n1 (stereo in doubt) [Example 93, (S)-4-(2-(1-ethyl-3-(trifluoromethyl)-1H pyrazol-4-yl)-3-fluorophenyl)-6-((E)-3-((2S,5R)-5-methylpyrrolidin-2-yl)acryloyl)-4,5,6,7-tetrahydrothieno[2,3-c]pyridine-2-carbonitrile] | 0.76 µM | 
19 | 3.47 µM | CCn1cc(-c2ccccc2[C@@H]2CN(C(=O)C#CC3CNC3)Cc3sc(C#N)cc32)c(C(F)(F)F)n1 [Example 147, (S)-6-(3-(Azetidin-3-yl)propioloyl)-4-(2-(1-ethyl-3-(trifluoromethyl)-1 H pyrazol-4-yl)phenyl)-4,5,6,7-tetrahydrothieno[2,3-c]pyridine-2-carbonitrile] | 0.62 µM | 
20 | 0.356 µM | C=CC(=O)N1Cc2sc(C#N)cc2C(c2cccc(F)c2-c2cn(CC)nc2C(F)(F)F)C1 (stereo not shown) [Compound 236] | 0.24 µM | 
21 | 0.249 µM | CNC/C=C/C(=O)N1Cc2sc(C#N)cc2[C@H](c2cccc(F)c2-c2cn(C)nc2C(F)(F)F)C1 [Example 129, (S,E)-4-(3-Fluoro-2-(1-methyl-3-(trifluoromethyl)-1 H pyrazol-4-yl)phenyl)-6-(4-(methylamino)but-2-enoyl)-4,5,6,7-tetrahydrothieno[2,3-c]pyridine-2-carbonitrile] | 0.505 µM | 
22 | 0.187 µM | CCn1cc(-c2ccccc2[C@@H]2CN(C(=O)/C=C/CN(C)C)Cc3sc(C#N)c(C)c32)c(C(F)(F)F)n1 [Compound 239] | 1.12 µM | 
23 | 0.283 µM | CCn1cc(-c2c(F)cccc2[C@@H]2CN(C(=O)/C=C/CNC(C)C)Cc3sc(C#N)cc32)c(C(F)(F)F)n1 [Example 106, (S,E)-4-(2-(1-Ethyl-3-(trifluoromethyl)-1H pyrazol-4-yl)-3-fluorophenyl)-6-(4-(isopropylamino)but-2-enoyl)-4,5,6,7-tetrahydrothieno[2,3-c]pyridine-2-carbonitrile] | 0.8 µM | 

Reference: patent publication US20240360148A1 (SUVALENT THERAPEUTICS, INC., priority 2021, published 2024)
